US6391303B1, “Methods and compositions for inducing oral tolerance in mammals” (Emisphere Technologies, Inc., priority 1996, dated 2002)

B1: MBP: Myelin Basic Protein, encephalitogenic antigen fed orally alone as comparison in the EAE model (protein, UniProt P02686 1-304, looked up)
Myelin basic protein: MGNHAGKRELNAEKASTNSETNRGESEKKRNLGELSRTTSEDNEVFGEADANQNNGTSSQDTAVTDSKRTADPKNAWQDAHPADPGSRPHLIRLFSRDAPGREDNTFKDRPSESDELQTIQEDSAATSESLDVMASQKRPSQRHGSKYLATASTMDHARHGFLPRHRDTGILDSIGRFFGGDRGAPKRGSGKDSHHPARTAHYGSLPQKSHGRTQDENPVVHFFKNIVTPRTPPPSQGKGRGLSLSRFSWGAEGQRPGFGYGGRASDYKSAHKGFKGVDAQGTLSKIFKLGGRDSRSGSPMARR

How the values were obtained:
[1] = tested on: anti-influenza antibodies (anti-HA); assay: Hemagglutination inhibition assay of pooled sera of primed mice fed influenza antigen with delivery agent; settings: primed s.c. 5 μg vaccine day 0, oral 60 μg influenza antigen + 750 mg/kg delivery agent day 21
Description: Sera were collected every two weeks, pooled, and assayed for hemagglutination inhibition.
Hemagglutination Inhibition Assay for Anti-HA Antibodies:
If duplicates differ by one dilution, take the average. If they differ by more than one dilution, repeat the assay.
14) This titer provides the dilution of virus suspension which contains one HA unit per 50 μl. Divide this titer by 8 to get the dilution which will contain 4 HA units per 0.025 μl for the actual Hemagglutination Inhibition (HI) assay.
RDE* treat all test sera, reference sera and negative control sera on the day before the HI assay will be done.
Use flexible plates. Mark columns for duplicate dilution series of each test and control serum sample (normal naive serum and positive reference anti-serum). The plate should have 11 columns per row for dilutions plus column 12 for RBC alone.
To all wells, except column 1, add 25 μl of PBS.
To column 1 wells, add 50 μl of the appropriate RDE-treatment serum (test, positive, or negative control) sample.
Serially 2× dilute 25 μl of the sera across to column 11, mixing 7× per dilution.
Add 25 μl of diluted virus (containing 4 HA units per 25 μl) to all serum dilution wells, columns 1-11. Add 25 μl of PBS to column 21.
Cover plate, mix briefly on shaker, and incubate at r.t. for 30 minutes.7. […]
Read patterns immediately. […]

[2] = tested on: anti-SRBC serum IgM antibodies; assay: Direct hemagglutination assay for anti-SRBC serum IgM in mice fed SRBC with delivery agent; type: in vivo, BALB/c mice
Description: (§1) Five female BALB/c mice were fed a single dose suspension of 2.5×10^9 sheep red blood cells (SRBC)+E94 (600 mg/Kg) in Phosphate Buffered Saline (PBS), 0.1 M phosphate and 0.15 M sodium chloride, pH 7.2. Seven days after completion of oral dosing, mice were primed by footpad injection of 1×10^7 SRBC. They were bled on day 14. On day 21 the mice were tested in a Delayed Type Hypersensitivity (DTH) test through challenge by injection in the footpad not previously used in priming with 1×10^8 SRBC. Footpad thickness was measured before and 24 hours after challenge using a Vernier caliper. On day 28 they were bled again. Sera were placed into Eppendorf tubes and assayed for anti-SRBC IgM (days 14 and 28) and anti-SRBC IgG (day 28) by the direct and indirect hemagglutination assays, respectively. (See assay description below.) Prior to assaying, the samples were heat inactivated at 56/C. for 60 minutes. Assay data for Example 1 are found in FIG. 2. […]
a) Dilute 10μ of sera with 190μ of PBS, pH 7.2 (1/20) b) On a rigid, U-bottom microtiter plate, mark wells across the rows for dilutions of samples 40; 80; 160; . . . […]

[3] = tested on: anti-ovalbumin IgG antibodies; assay: ELISA for serum anti-ovalbumin IgG in mice fed ovalbumin with delivery agent and challenged with ovalbumin in CFA; type: in vivo, BALB/c mice; settings: for serum anti-ovalbumin IgG titer at week 4: single oral dose 25 mg ovalbumin with or without 600 mg/kg delivery agent, SC challenge with ovalbumin/CFA week 1, versus unfed; for serum anti-ovalbumin IgG titer at week 12: two oral doses 1 mg ovalbumin (weeks 0 and 4) with or without 600 mg/kg delivery agent, IM challenge with ovalbumin/CFA week 9
Description: A stock solution was prepared by dissolving Ovalbumin, 10 mg/ml, in 10 mM phosphate buffer (pH 7.4). This solution was diluted with buffer to provide 1.0 mg in a volume of 0.2 ml. Ten BALB/c female mice were administered two oral doses of 1 mg ovalbumin per mouse with 600 mg/kg of E94 delivery agent at weeks 0 and 4.
Systemic challenge was achieved by intramuscular (IM) injection of 2 mg/ml ovalbumin with 50% Complete Freund's Adjuvant (CFA) at week 9. Serum samples were collected at week 12 and assayed for anti-ovalbumin total IgG isotypes as described in Example 4 utilizing ovalbumin antigen instead of HA antigen. Assay data for Example 5 are found in FIG. 5.
A stock solution of ovalbumin was prepared by dissolving Ovalbumin, 125 mg/ml, in 10 mM phosphate buffer (pH 7.4). This solution was used to provide 25 mg in a volume of 0.2 ml. Five BALB/c mice were administered a single oral dose of 25 mg ovalbumin per mouse with 600 mg/kg of E94 delivery agent.
Challenge was achieved by subcutaneous (SC) injection of 0.1 mg ovalbumin with 50% Complete Freund's Adjuvant (CFA) at week 1. Serum samples were collected at week 4 and assayed for anti-ovalbumin total IgG isotypes as described in Example 5. Assay data for Example 6 are found in FIG. 6.

[4] = tested on: anti-SRBC serum IgG antibodies; assay: Indirect hemagglutination assay for anti-SRBC serum IgG in mice fed SRBC with delivery agent; type: in vivo, BALB/c mice
Description: as §1, with “Sera were placed into Eppendorf tubes and assayed for anti-SRBC IgM (days 14 and 28) and anti-SRBC IgG (day 28) by the direct and indirect hemagglutination assays, respectively.” left out
a) In a 15 ml tube, add 11μ of goat anti-mouse IgG (Fcy specific) (2.3 mg/ml) to 5.05 ml PBS (1/460 dilution; approximate amount needed per plate) In a second tube, add 4μ of goat anti-rabbit IgG (Fc specific) to 1.8 ml of PBS approximate amount needed (per plate) […]

[5] = tested on: Experimental Autoimmune Encephalomyelitis (EAE); settings: for mean day of onset of paralysis: single oral dose 1.0 mg MBP alone or with delivery agent, day after challenge; for clinical disease (Mean Clinical Score) of EAE: single oral dose 1.0 mg MBP with delivery agent, footpad challenge 0.05 mg MBP/CFA, scale 0 to 5
Description: Two days after the (last) oral dose, all groups were challenged in the footpad with 0.05 mg of MBP emulsified with Complete Freund's Adjuvant containing Mycobacterium tuberculosis H37Ra, 4 mg/ml. Clinical signs of disease were observed starting on Day 11 after the challenge and rated on a scale of 0 (no disease) to 5 (death).

DTH response to SRBC = assay: Delayed Type Hypersensitivity (DTH) footpad thickness test in mice fed SRBC with delivery agent; type: in vivo, BALB/c mice; settings: single oral dose 2.5×10^9 SRBC + delivery agent 600 mg/Kg; versus unfed control and SRBC alone
Description: Five female BALB/c mice were fed a single dose suspension of 2.5×10^9 sheep red blood cells (SRBC)+E94 (600 mg/Kg) in Phosphate Buffered Saline (PBS), 0.1 M phosphate and 0.15 M sodium chloride, pH 7.2. Seven days after completion of oral dosing, mice were primed by footpad injection of 1×10^7 SRBC. They were bled on day 14. On day 21 the mice were tested in a Delayed Type Hypersensitivity (DTH) test through challenge by injection in the footpad not previously used in priming with 1×10^8 SRBC. Footpad thickness was measured before and 24 hours after challenge using a Vernier caliper. On day 28 they were bled again. Sera were placed into Eppendorf tubes and assayed for anti-SRBC IgM (days 14 and 28) and anti-SRBC IgG (day 28) by the direct and indirect hemagglutination assays, respectively. (See assay description below.) Prior to assaying, the samples were heat inactivated at 56/C. for 60 minutes. Assay data for Example 1 are found in FIG. 2.
Five female BALB/c mice were fed a single dose suspension of 2.5×10^9 sheep red blood cells (SRBC)+[…] (600 mg/Kg) as described in Example 7. Seven days after completion of oral dosing, mice were primed by footpad injection of 1×10^7 SRBC. On day 14. footpad thickness was measured according to the Delayed Type Hypersensitivity (DTH) method outlined in Example 1. The DTH data for Example 8 are found in FIG. 8. […]

[6] = tested on: DTH response to ovalbumin; assay: DTH footpad thickness assay in mice fed ovalbumin with delivery agent; type: in vivo, BALB/c mice; settings: single oral dose 1.0 mg ovalbumin with or without 600 mg/kg delivery agent; SC challenge ovalbumin/CFA week 3; versus unfed
Description: A stock solution of ovalbumin was prepared by dissolving Ovalbumin, 10 mg/ml in 10 mM phosphate buffer (pH 7.4). This solution was diluted 2-fold and used to provide 1.0 mg in a volume of 0.2 ml. Five BALB/c mice were administered a single oral dose of 1.0 mg ovalbumin per mouse with 600 mg/kg of E702 delivery agent.
Challenge was achieved by subcutaneous (SC) injection of 0.1 mg ovalbumin with 50% Complete Freund's Adjuvant (CFA) at week 3. DTH assay was performed as described in Examples 1 and 8. Assay data for Example 10 are found in FIG. 9.

[7] = single oral dose SRBC + delivery agent 600 mg/Kg, versus unfed control (Comparative Example D)

Molecule	serum anti-ovalbumin IgG titer at week 4 [3]	serum anti-ovalbumin IgG titer at week 12 [3]	mean day of onset of paralysis [5] [days]	clinical disease (Mean Clinical Score) of EAE [5]	DTH response (footpad thickness), Day 14 (DTH response to SRBC)	DTH response (footpad thickness), week 5 [6]	also measured
O=C(N[C@@H](Cc1ccccc1)C(=O)O)c1ccccc1O [E94, N-salicyloyl phenylalanine]	significantly suppressed serum anti-Ova IgG titers	significantly suppressed compared to both unfed and antigen-alone fed	15	suppression of clinical disease			suppression of anti-influenza antibody production (HI titer) relative to control fed only influenza antigen [1]: more than 2 fold; anti-SRBC IgM titer, Day 14 ([2]; single oral dose 2.5×10^9 SRBC + delivery agent 600 mg/Kg, primed day 7, versus unfed control and SRBC alone): suppressed IgM on Day 14 relative to unfed control (Comparative Example D) significantly more than without delivery agent; anti-SRBC IgM titer, Day 28 [2, 7]: still lower than that for the Comparative Example D control (90% significance); anti-SRBC IgG titer, Day 28 [4, 7]: lower than the Comparative Example D control (90% significance)
O=C(O)CCCc1ccc(NS(=O)(=O)c2ccccc2)cc1 [E198, 4-[4-(N-benzenesulfonyl)]aminophenyl butyric acid]					suppressed the DTH response on Day 14 relative to unfed control (Comparative Example L) significantly more than without delivery agent		
COc1ccccc1C(=O)Nc1ccc(CCC(=O)O)cc1 [E594, 3-[4-(N-2 methoxybenzoyl)]aminophenyl propionic acid]					suppressed the DTH response on Day 14 relative to unfed control (Comparative Example L) significantly more than without delivery agent		anti-SRBC IgG titer, Day 14 ([4]; single oral dose 2.5×10^9 SRBC + delivery agent 600 mg/Kg, versus unfed control and SRBC alone): suppressed IgG on Day 14 relative to unfed control (Comparative Example K) significantly more than without delivery agent
COc1cccc(C(=O)Nc2ccc(CCC(=O)O)cc2)c1OC [E702, 3-[4-(N-2,3-dimethoxybenzoyl)]aminophenyl propionic acid]			15	suppression of clinical disease		significantly suppressed response in the DTH	
Ovalbumin: Ovalbumin antigen fed orally alone, without delivery agent, as comparative example	suppression was not statistically significant	the same as in mice given the intramuscular dose alone				not suppressed	
B1			13				
